Experimental data reported in the RepoRT retention time repository (doi:10.1016/j.chroma.2015.03.063).

Assay: RP, Thermo Scientific Accucore C18, 150 × 2.1 mm, 2.6 µm, 24 °C, 0.28 mL/min, estimated dead time 0.83 min; A: 90% water + 10% acetonitrile + 10 mM ammonium acetate; B: 20% water + 80% methanol + 10 mM ammonium acetate; gradient (min/%B) 0/0 2.5/0 7.5/30 12.5/30 15/40 20/100 27.5/100
Details: stereoisomer not certain

LC retention time | Compound
9.1 min | Cc1cc(C)cc(NC(=O)Cc2ccc(OC(C)(C)C(=O)O)cc2)c1
13 min | Cc1cccc(Nc2ccccc2C(=O)O)c1C
9.53 min | CC(=O)Oc1c(C)cc(OCC(O)CNC(C)C)c(C)c1C (stereo not given)
9.66 min | NC(CC(O)COc1cccc2ccccc12)=NO (stereo not given)

Compound | LC retention time
CN(C)C(=O)Oc1cc(OC(=O)N(C)C)cc(C(O)CNC(C)(C)C)c1 (stereo not given) | 8.28 min
CC(Cc1ccccc1)NCCn1cnc2c1c(=O)n(C)c(=O)n2C (stereo not given) | 8.9 min
CCOC(=O)C1(c2ccccc2)CCN(C)CC1 | 8.8 min

Assay: Agilent ZORBAX Eclipse Plus C18, 100 × 2.1 mm, 1.8 µm, 25 °C, 0.3 mL/min, estimated dead time 0.73 min; A: water + 0.1% acetic acid; B: methanol; gradient (min/%B) 0/5 6/20 13/35 18/50 24/65 30/90 40/90
Details: stereoisomer not certain

LC retention time | Compound
5.02 min | CC(C)CC(N)C(=O)O (stereo not given)
32.2 min | CC(C)(O)C1CCC(C)(C2C(O)CC3(C)C4CC(OC5OC(CO)C(O)C(O)C5O)C5C(C)(C)C(OC6OCC(O)C(O)C6O)CCC56CC46CCC23C)O1 (stereo not given)
4.2 min | O=c1cc[nH]c(=O)[nH]1
2.4 min | OCC1OC(OC2(CO)OC(CO)C(O)C2O)C(O)C(O)C1O (stereo not given)
17.6 min | COc1ccc(-c2coc3cc(OC4OC(CO)C(O)C(O)C4O)ccc3c2=O)cc1O (stereo not given)
8.99 min | O=C(C=Cc1ccc(O)c(O)c1)OC1CC(O)(C(=O)O)CC(O)C1O (stereo not given)
7.09 min | O=Cc1ccc(CO)o1
2.12 min | CC(O)C(N)C(=O)O (stereo not given)
2.21 min | C[n+]1cccc(C(=O)[O-])c1
11.5 min | COc1cc(C=CC(=O)O)ccc1O
11.6 min | CC1OC(OCC2OC(Oc3c(-c4ccc(O)c(O)c4)oc4cc(O)cc(O)c4c3=O)C(O)C(O)C2O)C(O)C(O)C1O (stereo not given)
2.54 min | OCC1OC(OCC2OC(OC3(CO)OC(CO)C(O)C3O)C(O)C(O)C2O)C(O)C(O)C1O (stereo not given)
4.67 min | CCC(C)C(N)C(=O)O (stereo not given)
30.1 min | C=C1CCCC2(C)CC3(O)OC(=O)C(C)=C3CC12 (stereo not given)
2.05 min | NC(N)=NCCCC(N)C(=O)O (stereo not given)
2.11 min | NC(=O)CC(N)C(=O)O (stereo not given)
7.74 min | O=C(O)c1ccc(O)c(O)c1

LC retention time | Compound
1.88 min | NCCCCC(N)C(=O)O (stereo not given)
5.25 min | Nc1ncnc2c1ncn2C1OC(CO)C(O)C1O (stereo not given)
18.2 min | O=c1cc(-c2ccc(O)cc2)oc2cc(OC3OC(CO)C(O)C(O)C3O)cc(O)c12 (stereo not given)
22.7 min | CCCCC=CC=CC=O
13.9 min | COC(=O)C1=COC(OC2OC(CO)C(O)C(O)C2O)C2C(CO)=CCC12 (stereo not given)
21.6 min | COc1ccc(-c2coc3cc(OC4OC(CO)C(O)C(O)C4O)ccc3c2=O)cc1 (stereo not given)
3.21 min | CSCCC(N)C(=O)O (stereo not given)
2.8 min | C[N+](C)(C)CC(=O)[O-]
4.31 min | NC(Cc1ccc(O)cc1)C(=O)O (stereo not given)
2.73 min | Nc1ncnc2nc[nH]c12
3.34 min | O=C(O)c1cccnc1
2.08 min | C[N+](C)(C)CCO
7.22 min | NC(Cc1ccccc1)C(=O)O (stereo not given)
9.87 min | COc1cc(C(=O)O)cc(OC)c1O
23.6 min | COc1ccc(-c2coc3cc(O)ccc3c2=O)cc1O
9.7 min | NC(Cc1c[nH]c2ccccc12)C(=O)O (stereo not given)
